Source: PMC7343802, “The development of the dog heartworm is highly sensitive to sterols which activate the orthologue of the nuclear receptor DAF-12” (Scientific Reports, 2020)

Tests used:
CelDAF-12 = CelDAF-12 (Caenorhabditis elegans, UniProt G5EFF5); test: cell-based
D. immitis iL3 larvae = test: in vitro molting of infective third-stage larvae (iL3) into L4; type: cell-based, Dirofilaria immitis

CelDAF-12, sequence (G5EFF5 516-753): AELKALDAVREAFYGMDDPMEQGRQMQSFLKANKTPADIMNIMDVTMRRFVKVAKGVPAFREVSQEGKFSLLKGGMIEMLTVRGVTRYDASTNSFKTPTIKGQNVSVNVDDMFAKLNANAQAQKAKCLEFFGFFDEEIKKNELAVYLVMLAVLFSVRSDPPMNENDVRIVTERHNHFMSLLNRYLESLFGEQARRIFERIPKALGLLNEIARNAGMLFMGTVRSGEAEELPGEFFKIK

CC(CCCC(C)C1CCC2C3=CCC4CC(=O)CCC4(C)C3CCC21C)C(=O)O [Δ7-DA, (25S)-Δ7-dafachronic acid]
EC50 (CelDAF-12): 16 nM
number of free cuticles (completed molt, L4) versus DMSO control (D. immitis iL3 larvae): significantly higher
start of the molting process (day in culture) (D. immitis iL3 larvae): 3 to 4 days
overall effect on molting of iL3 into L4 (D. immitis iL3 larvae; 10 µM): induced a rapid development of iL3 into L4
percentage of iL3 which had initiated but not completed the molt, compared to DMSO control (D. immitis iL3 larvae; 10 µM, day 5 or 6): low percentage
